Reference: patent US20230172984A1, “CLEARANCE OF SENESCENT CELLS BY ACTIVATION OF iNKT CELLS” (THE REGENTS OF THE UNIVERSITY OF CALIFORNIA, priority 2020, published 2023)

Assay: Metabolic measurements in HFD-fed mice (fasting glucose, GTT, HOMA-IR)
Format: in vivo, mouse
Settings: 10 days after α-GalCer injection
Procedure: α-GalCer activation of iNKT cells. iNKT cells were activated in vivo using α-GalCer as described in Peralbo et al., 2006. Decreased frequency and proliferative response of invariant Vα24Vβ11 natural killer T (iNKT) cells in healthy elderly. Biogerontology 7, 483-492. Briefly, HFD mice were i.p. injected with 200 μl of a 10 μg/ml α-GalCer solution (2 μg total) made up in 5.6% Sucrose, 5% Tween-20. On day 3 or 4 post-injection, mice were euthanized for various experiments, as indicated.
Metabolic measurements. Seventeen male HFD-fed C57BL6J mice were divided into the vehicle (n=8) and the α-GalCer treated group (n=9). Age-matched male C57BL6/J mice on a standard rodent chow diet were used as controls (n=8). A glucose tolerance test was performed 10 days after α-GalCer injection. Mice were fasted overnight (14 h) before being injecting 2 g/kg glucose intraperitoneally. Blood glucose was measured at 0, 15, 30, 60, and 120 min after glucose injection using a glucometer.

CCCCCCCCCCCCCCCCCCCCCCCCCC(=O)N[C@@H](CO[C@H]1O[C@H](CO)[C@H](O)[C@H](O)[C@H]1O)[C@H](O)[C@H](O)CCCCCCCCCCCCCC [GalCer, alpha-Galactosylceramide]
glucose tolerance (GTT) (2 g/kg glucose i.p. after 14 h fast, vs vehicle): improved glucose tolerance | insulin sensitivity (HOMA-IR) (vs vehicle): improved insulin sensitivity | fasting glucose (vs vehicle-treated HFD-fed mice): significantly lower fasting glucose
